Assay results from US6031006A, “Method of treating diabetic nephropathy” (BioNumerik Pharmaceuticals, Inc., priority 1999, dated 2000).

Assays:
[1] = target: T1, aldose reductase (human recombinant, expressed in SF 9 cells) (Homo sapiens, UniProt P15121); assay: Aldose reductase assay, reduction of glucose to sorbitol (NADPH oxidation, absorbance at 340 nm); type: biochemical
Procedure: (§1) Aldose reductase assays were as described in Nishimura C., Yamaoka T., Mizutani M., Yamashita K., Akera T., Tanimoto T., Purification And Characterization Of The Recombinant Human Aldose Reductase Expressed In Baculovirus System, Biochem. Biophys. Acta, Jun. 24, 1991; 1078(2):171-8.
(§2) Briefly, Dimesna (0-20 μM) was incubated at 37° C. with aldose reductase (0.0016 units, human recombinant, expressed in SF 9 cells) and NADPH (0.15 mM) in sodium phosphate buffer (100 mM, pH 6.2). To initiate assays, glucose (10-150 mM) was added to reactions and the decrease in absorbance at 340 nm (oxidation of NADPH) was monitored. Assays were run in duplicate or triplicate. Slopes were calculated using Varian-Cary software package 2.0 and averaged. In all cases errors were 4% or less. Lineweaver Burk analysis (Enzyme Kinetics, version 1.61) was used to calculate inhibition constants.

[2] = target: T1, aldose reductase (human recombinant, expressed in SF 9 cells); assay: Aldose reductase assay, NADPH dependent reduction of glyceraldehyde; type: biochemical; details: substrate glyceraldehyde 0.050-6 mM, 37° C., Lineweaver Burk analysis, read-out: Ki, inhibition of aldose reductase catalyzed reduction of glyceraldehyde to aldose
Procedure: as §1, §2
Aldose reductase assays were as described above. Dimesna (0-30 mM) was evaluated for its effect on the NADPH dependent reduction of glyceraldehyde (0.050-6 mM) to aldose at 37° C. Assays were run in duplicate or triplicate. Slopes were calculated using Varian-Cary software package 2.0 and averaged. In all cases errors were 4% or less. Lineweaver Burk analysis (Enzyme Kinetics, version 1.61) was used to calculate inhibition constants.

[3] = system: mice; details: intravenous; cited from earlier work
[4] = system: dogs; details: intravenous; cited from earlier work
[5] = system: humans; details: cited from earlier work
[6] = accepted value; cited from earlier work

O=S(=O)([O-])CCSSCCS(=O)(=O)[O-].[Na+].[Na+] [Dimesna, disodium 2,2'-dithiobis ethane sulfonate]
Type of inhibition of the aldose reductase reaction ([1]; Lineweaver Burk plots nearly parallel, glucose and glyceraldehyde substrates): uncompetitive inhibition
Ki ([1]; substrate glucose 10-150 mM, NADPH 0.15 mM, pH 6.2, 37° C., Lineweaver Burk analysis, read-out: Ki, inhibition of aldose reductase catalyzed reduction of glucose to sorbitol): 32 µM
Ki [2]: 15.5 µM
Dose administered with no adverse effects [3]: > 3750 mg/kg
Dose administered with no adverse effects [4]: > 3750 mg/kg
Dose administered with no adverse effects [5]: exceeding 15 g/m^2

[Cl-].[Na+] [common table salt]
oral LD50 [6]: 3750 mg/kg
